Data from PubChem BioAssay AID2060900 (Molecular Pharmacology Branch, DTP, NCI, 2025).

Tested on: 521955-158-R2-J5-PDC complex spheroids, viability
Assay: Anticancer human tumor 521955-158-R2-J5-PDC patient-derived pancreatic carcinoma cell line growth inhibition [RAS]
Conditions: for viability, T/C: stronger effect = lower value
Procedure, shortened: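 Agents were tested in combination matrices in half-log decrements from a top concentration at or near clinical Cmax (10 microM if undetermined). Targets were multi-cell spheroids of tumour lines plus HUVEC and MSC stromal cells.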
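Further: compound exposure lasted seven days before the viability read.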
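Wherever viability, T/C is given: spheroids also contain HUVEC endothelial cells and mesenchymal stem cells as stroma.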

Q: What does the source list for Cc1nc(N2CCC3(CC2)COC(C)C3N)c(CO)nc1Sc1ccnc(N)c1Cl (stereo not drawn) + C#Cc1c(F)ccc2cc(O)cc(-c3ncc4c(N5CC6CCC(C5)N6)nc(OCC56CCCN5CC(F)C6)nc4c3F)c12?
A: IC50 (curve of first compound, second compound 0.0316 µM): 0.598 µM; IC50 (curve of first compound, second compound 0.1 µM): 0.177 µM; IC50 (curve of first compound, second compound 0.316 µM): 0.115 µM; IC50 (curve of first compound, second compound 1 µM): < 0.0316 µM; IC50 (curve of first compound, second compound 3.16 µM): < 0.0316 µM; IC50 (curve of first compound, second compound 10 µM): < 0.0316 µM; viability, T/C (second compound 0.0316 µM, first compound 0.0316 µM): 50.1%; viability, T/C (second compound 0.0316 µM, first compound 0.1 µM): 63.7%; viability, T/C (second compound 0.0316 µM, first compound 0.316 µM): 60.6%; viability, T/C (second compound 0.0316 µM, first compound 1 µM): 43.5%; viability, T/C (second compound 0.0316 µM, first compound 3.16 µM): 42.3%; viability, T/C (second compound 0.0316 µM, first compound 10 µM): 37.4%; viability, T/C (second compound 0.1 µM, first compound 0.0316 µM): 61.1%; viability, T/C (second compound 0.1 µM, first compound 0.1 µM): 58.3%; viability, T/C (second compound 0.1 µM, first compound 0.316 µM): 41.9%; viability, T/C (second compound 0.1 µM, first compound 1 µM): 37.6%; viability, T/C (second compound 0.1 µM, first compound 3.16 µM): 39.7%; viability, T/C (second compound 0.1 µM, first compound 10 µM): 28.2%; viability, T/C (second compound 0.316 µM, first compound 0.0316 µM): 63.1%; viability, T/C (second compound 0.316 µM, first compound 0.1 µM): 46.2%; viability, T/C (second compound 0.316 µM, first compound 0.316 µM): 44.1%; viability, T/C (second compound 0.316 µM, first compound 1 µM): 37.7%; viability, T/C (second compound 0.316 µM, first compound 3.16 µM): 27.2%; viability, T/C (second compound 0.316 µM, first compound 10 µM): 24%; viability, T/C (second compound 1 µM, first compound 0.0316 µM): 45.3%; viability, T/C (second compound 1 µM, first compound 0.1 µM): 42.9%; viability, T/C (second compound 1 µM, first compound 0.316 µM): 39.3%; viability, T/C (second compound 1 µM, first compound 1 µM): 30.7%; viability, T/C (second compound 1 µM, first compound 3.16 µM): 33.2%; viability, T/C (second compound 1 µM, first compound 10 µM): 22.9%; viability, T/C (second compound 3.16 µM, first compound 0.0316 µM): 37.1%; viability, T/C (second compound 3.16 µM, first compound 0.1 µM): 39.7%; viability, T/C (second compound 3.16 µM, first compound 0.316 µM): 34.4%; viability, T/C (second compound 3.16 µM, first compound 1 µM): 28.3%; viability, T/C (second compound 3.16 µM, first compound 3.16 µM): 19%; viability, T/C (second compound 3.16 µM, first compound 10 µM): 20.1%; viability, T/C (second compound 10 µM, first compound 0.0316 µM): 48.7%; viability, T/C (second compound 10 µM, first compound 0.1 µM): 28.2%; viability, T/C (second compound 10 µM, first compound 0.316 µM): 21.3%; viability, T/C (second compound 10 µM, first compound 1 µM): 18.5%; viability, T/C (second compound 10 µM, first compound 3.16 µM): 13.7%; viability, T/C (second compound 10 µM, first compound 10 µM): 5%

Q: With CCc1c2c(nc3ccc(O)cc13)-c1cc3c(c(=O)n1C2)COC(=O)[C@]3(O)CC as the compound, how does the viability, T/C (compound 0.000949 µM) read?
A: 82.5% [middle of 4 runs]

Q: And the viability, T/C (compound 0.003 µM)?
A: 44.6% [middle of 4 runs]

Q: And the viability, T/C (compound 0.00949 µM)?
A: 19.9% [middle of 4 runs]

Q: What about the viability, T/C (compound 0.03 µM) of the same compound?
A: 10.1% [middle of 4 runs]

Q: And the viability, T/C (compound 0.0949 µM)?
A: 6.59% [middle of 4 runs]

Q: And the viability, T/C (compound 0.3 µM)?
A: 6.5% [middle of 4 runs]

Q: And the IC50 (curve of compound)?
A: 2.64 nM [middle of 4 runs]

Q: How did the IC50 (curve of first compound, second compound 0.000949 µM) turn out when CCc1c2c(nc3ccc(O)cc13)-c1cc3c(c(=O)n1C2)COC(=O)[C@]3(O)CC + CCn1c(-c2cc(N3CCN(C)CC3)cnc2C(C)OC)c2c3cc(ccc31)-c1csc(n1)CC(NC(=O)C1CC1C)C(=O)N1CCCC(N1)C(=O)OCC(C)(C)C2 was run?
A: < 0.000949 µM

Q: What about the IC50 (curve of first compound, second compound 0.003 µM) of the same compound?
A: < 0.000949 µM

Q: And the IC50 (curve of first compound, second compound 0.00949 µM)?
A: < 0.000949 µM

Q: And the IC50 (curve of first compound, second compound 0.03 µM)?
A: < 0.000949 µM

Q: What about the IC50 (curve of first compound, second compound 0.0949 µM) of the same compound?
A: < 0.000949 µM

Q: What about the IC50 (curve of first compound, second compound 0.3 µM) of the same compound?
A: < 0.000949 µM

Q: And the viability, T/C (second compound 0.000949 µM, first compound 0.000949 µM)?
A: 30.3%

Q: And the viability, T/C (second compound 0.000949 µM, first compound 0.003 µM)?
A: 23.1%

Q: And the viability, T/C (second compound 0.000949 µM, first compound 0.00949 µM)?
A: 20.6%

Q: What about the viability, T/C (second compound 0.000949 µM, first compound 0.03 µM) of the same compound?
A: 6.46%

Q: And the viability, T/C (second compound 0.000949 µM, first compound 0.0949 µM)?
A: 5.57%

Q: And the viability, T/C (second compound 0.000949 µM, first compound 0.3 µM)?
A: 4.03%

Q: What about the viability, T/C (second compound 0.003 µM, first compound 0.000949 µM) of the same compound?
A: 30.4%

Q: And the viability, T/C (second compound 0.003 µM, first compound 0.003 µM)?
A: 26.8%

Q: And the viability, T/C (second compound 0.003 µM, first compound 0.00949 µM)?
A: 19.9%

Q: And the viability, T/C (second compound 0.003 µM, first compound 0.03 µM)?
A: 10.5%

Q: What about the viability, T/C (second compound 0.003 µM, first compound 0.0949 µM) of the same compound?
A: 8.02%

Q: What about the viability, T/C (second compound 0.003 µM, first compound 0.3 µM) of the same compound?
A: 5.19%

Q: What about the viability, T/C (second compound 0.00949 µM, first compound 0.000949 µM) of the same compound?
A: 26.2%

Q: And the viability, T/C (second compound 0.00949 µM, first compound 0.003 µM)?
A: 26%

Q: And the viability, T/C (second compound 0.00949 µM, first compound 0.00949 µM)?
A: 19.6%

Q: And the viability, T/C (second compound 0.00949 µM, first compound 0.03 µM)?
A: 9.8%

Q: What about the viability, T/C (second compound 0.00949 µM, first compound 0.0949 µM) of the same compound?
A: 10.9%

Q: What about the viability, T/C (second compound 0.00949 µM, first compound 0.3 µM) of the same compound?
A: 5.95%

Q: And the viability, T/C (second compound 0.03 µM, first compound 0.000949 µM)?
A: 19.4%

Q: And the viability, T/C (second compound 0.03 µM, first compound 0.003 µM)?
A: 21.2%

Q: What about the viability, T/C (second compound 0.03 µM, first compound 0.00949 µM) of the same compound?
A: 13.2%

Q: And the viability, T/C (second compound 0.03 µM, first compound 0.03 µM)?
A: 8.77%

Q: What about the viability, T/C (second compound 0.03 µM, first compound 0.0949 µM) of the same compound?
A: 10.2%

Q: What about the viability, T/C (second compound 0.03 µM, first compound 0.3 µM) of the same compound?
A: 5.37%

Q: What about the viability, T/C (second compound 0.0949 µM, first compound 0.000949 µM) of the same compound?
A: 11.3%

Q: And the viability, T/C (second compound 0.0949 µM, first compound 0.003 µM)?
A: 14.1%

Q: What about the viability, T/C (second compound 0.0949 µM, first compound 0.00949 µM) of the same compound?
A: 8.2%

Q: And the viability, T/C (second compound 0.0949 µM, first compound 0.03 µM)?
A: 6.36%

Q: And the viability, T/C (second compound 0.0949 µM, first compound 0.0949 µM)?
A: 5.92%

Q: What about the viability, T/C (second compound 0.0949 µM, first compound 0.3 µM) of the same compound?
A: 2.8%

Q: And the viability, T/C (second compound 0.3 µM, first compound 0.000949 µM)?
A: 8.86%

Q: And the viability, T/C (second compound 0.3 µM, first compound 0.003 µM)?
A: 10.8%

Q: What about the viability, T/C (second compound 0.3 µM, first compound 0.00949 µM) of the same compound?
A: 8.12%

Q: What about the viability, T/C (second compound 0.3 µM, first compound 0.03 µM) of the same compound?
A: 5.86%

Q: And the viability, T/C (second compound 0.3 µM, first compound 0.0949 µM)?
A: 6.11%

Q: What about the viability, T/C (second compound 0.3 µM, first compound 0.3 µM) of the same compound?
A: 2.57%

Q: How did the viability, T/C (compound 0.00316 µM) turn out when O=C(c1ccc(F)c(F)c1Nc1ccc(I)cc1F)N1CC(O)([C@@H]2CCCCN2)C1 was run?
A: 82% [middle of 4 runs]

Q: And the viability, T/C (compound 0.01 µM)?
A: 71% [middle of 4 runs]

Q: What about the viability, T/C (compound 0.0316 µM) of the same compound?
A: 51.7% [middle of 4 runs]

Q: And the viability, T/C (compound 0.1 µM)?
A: 42.8% [middle of 4 runs]

Q: And the viability, T/C (compound 0.316 µM)?
A: 33.9% [middle of 4 runs]

Q: And the viability, T/C (compound 1 µM)?
A: 23.6% [middle of 4 runs]

Q: What about the IC50 (curve of compound) of the same compound?
A: 40.1 nM [middle of 4 runs]
